Source: ChEMBL document CHEMBL1137330, “Synthesis and pharmacokinetics of valopicitabine (NM283), an efficient prodrug of the potent anti-HCV agent 2'-C-methylcytidine” (J Med Chem, 2006)
Converted amounts (≈) assume the structure as drawn. Values belong to the molecule of their own block, whether it stands above or below them.

Key:
Rattus norvegicus [1] = test: Apparent oral bioavailability in jugular vein cannulated Sprague-Dawley rat at 100 mg/kg, po administered as prodrug; assay type: ADME, organism-based; settings: in vivo
Rattus norvegicus [2] = test: Cmax in jugular vein cannulated Sprague-Dawley rat at 100 mg/kg, po administered as prodrug; assay type: ADME, organism-based; set-up: dose 100 mg/kg, route oral; settings: in vivo
Rattus norvegicus [3] = test: Terminal half life in jugular vein cannulated Sprague-Dawley rat at 100 mg/kg, po administered as prodrug; assay type: ADME, organism-based; set-up: dose 100 mg/kg, route oral; settings: in vivo
Rattus norvegicus [4] = test: Tmax in jugular vein cannulated Sprague-Dawley rat at 100 mg/kg, po administered as prodrug; assay type: ADME, organism-based; set-up: dose 100 mg/kg, route oral; settings: in vivo
Rattus norvegicus [5] = test: AUC(0-t) in jugular vein cannulated Sprague-Dawley rat at 100 mg/kg, po administered as prodrug; assay type: ADME, organism-based, Plasma; set-up: dose 100 mg/kg, route oral; settings: in vivo
[6] = Cmax in Sprague-Dawley rat after 15 days at 60 mg/kg/day, iv; assay type: ADME, organism-based; set-up: dose 60 mg/kg/day, route intravenous; settings: in vivo
[7] = AUC in Sprague-Dawley rat after 15 days at 60 mg/kg/day, iv; assay type: ADME, organism-based; set-up: route intravenous; settings: plasma
[8] = Aqueous solubility of the compound; assay type: physicochemical
[9] = Distribution coefficient, log P of the compound; assay type: physicochemical; settings: octanol/water
[10] = Chemical stability at pH 4.5; assay type: physicochemical; settings: buffer
[11] = Chemical stability at pH 7.2; assay type: physicochemical; settings: buffer
[12] = Protein binding in rat plasma at 20 uM; assay type: ADME, cell-free; settings: read-out: PPB (converted)
[13] = Chemical stability at pH 1.2; assay type: physicochemical; settings: buffer
Rattus norvegicus [14] = test: (§1) AUC (0-t) in jugular vein cannulated Sprague-Dawley rat at 100 mg/kg, po; assay type: ADME, organism-based, Plasma; set-up: dose 100 mg/kg, route oral; settings: in vivo
Rattus norvegicus [15] = test: Urinary excretion in intact Sprague-Dawley rat at 100 mg/kg, po after 168 hrs; assay type: ADME, organism-based, Urine; set-up: dose 100 mg/kg, route oral; settings: in vivo
[16] = Biliary excretion in bile duct cannulated Sprague-Dawley rat at 100 mg/kg, po after 72 hrs; assay type: ADME, organism-based; set-up: dose 100 mg/kg, route oral; settings: read-out: Activity
[17] = Fecal excretion in bile duct cannulated Sprague-Dawley rat at 100 mg/kg, po after 72 hrs; assay type: ADME, organism-based; set-up: dose 100 mg/kg, route oral; settings: faeces, read-out: Activity
[18] = Urinary excretion in bile duct cannulated Sprague-Dawley rat at 100 mg/kg, po after 72 hrs; assay type: ADME, organism-based; set-up: dose 100 mg/kg, route oral; settings: urine, read-out: Activity
[19] = Fecal excretion in intact Sprague-Dawley rat at 100 mg/kg, po after 168 hrs; assay type: ADME, organism-based; set-up: dose 100 mg/kg, route oral; settings: faeces, read-out: Activity
[20] = Cmax in jugular vein cannulated Sprague-Dawley rat at 100 mg/kg, po; assay type: ADME, organism-based; set-up: dose 100 mg/kg, route oral; settings: in vivo
[21] = as §1; assay type: ADME, organism-based, Plasma; set-up: dose 100 mg/kg, route oral; settings: Sprague-Dawley, plasma
[22] = Terminal half life in jugular vein cannulated Sprague-Dawley rat at 100 mg/kg, po; assay type: ADME, organism-based; set-up: dose 100 mg/kg, route oral; settings: in vivo, read-out: beta t1/2 (converted)
[23] = Tmax in jugular vein cannulated Sprague-Dawley rat at 100 mg/kg, po; assay type: ADME, organism-based; set-up: dose 100 mg/kg, route oral; settings: in vivo
Plasma = test: Drug level in jugular vein cannulated Sprague-Dawley rat plasma after 12 hrs; assay type: ADME, cell-free
[24] = Half life in human whole blood; assay type: ADME, organism-based
[25] = Half life at pH 4.5; assay type: ADME; settings: buffer
[26] = Half life at pH 7.2; assay type: ADME; settings: buffer
Homo sapiens [27] = species on record: Homo sapiens; test: Conversion of prodrug to 2'-C-methylcytidine in human liver cytosol; assay type: ADME, organism-based
Homo sapiens [28] = species on record: Homo sapiens; test: Conversion of prodrug to 2'-C-methylcytidine in human liver S9 fraction; assay type: ADME, organism-based
Homo sapiens [29] = species on record: Homo sapiens; test: Half life in human plasma

- F (Rattus norvegicus [1]): 33.6%
- Cmax (Rattus norvegicus [2]): 6120 ng/mL
- beta t1/2 (Rattus norvegicus [3]): 7.1 h
- Tmax (Rattus norvegicus [4]): 2 h
- AUC (Rattus norvegicus [5]): 30000 ng·h/mL
- Cmax [6]: 75600 ng/mL
- AUC at 360 h [7]: 74400 ng·h/mL
- solubility [8]: 32 mg/mL (≈ 124 mM)
- logP [9]: -0.965
- Stability [10]: Stable
- Stability [11]: Stable
- fraction unbound at 20 µM [12]: 0.95
- Stability [13]: Stable
Structure (SMILES): C[C@@]1(O)[C@H](O)[C@@H](CO)O[C@H]1n1ccc(N)nc1=O

- AUC (Rattus norvegicus [14]): < 0.1 µg/mL
Structure (SMILES): C[C@@]1(O)[C@@H](n2ccc(=O)[nH]c2=O)O[C@@H](CO)[C@@H]1O

- Activity (Rattus norvegicus [15]): 31.9%
- dose excreted at 72 h [16]: 0.3%
- dose excreted at 72 h [17]: 65.9%
- dose excreted at 72 h [18]: 29.8%
- dose excreted at 168 h [19]: 63.5%
Structure (SMILES): CC(C)C(N)C(=O)O[C@H]1[C@H](CO)O[C@H](n2ccc(N)nc2=O)[14C@@]1(C)O.Cl.Cl (stereo partly drawn)

- Cmax [20]: 3620 ng/mL
- AUC(0-t) [21]: 8950 ng·h/mL
- half-life [22]: 0.64 h
- Tmax [23]: 1 h
- Activity (Plasma): Not Active
- solubility [8]: 423 mg/mL
- logP [9]: -1.34
- half-life [24]: 0.667 h
- fraction unbound at 20 µM [12]: 0.93
- half-life [25]: 146 h
- half-life [26]: 3.9 h
- Activity (Homo sapiens [27]): 30%
- Activity (Homo sapiens [28]): 30%
- half-life (Homo sapiens [29]): 2.17 h
Structure (SMILES): CC(C)[C@H](N)C(=O)O[C@@H]1[C@@H](CO)O[C@@H](n2ccc(N)nc2=O)[C@]1(C)O.Cl.Cl [VALOPICITABINE DIHYDROCHLORIDE]
